Laboratory results taken from the NIST ThermoML archive (doi:10.1021/je025620p).
Numbers after ± are expanded uncertainties.

Assay: isobaric coefficient of expansion
Conditions: 303.15 K, Liquid

Compound	isobaric coefficient of expansion (500 kPa)	isobaric coefficient of expansion (1000 kPa)	isobaric coefficient of expansion (2000 kPa)	isobaric coefficient of expansion (4000 kPa)	isobaric coefficient of expansion (6000 kPa)	isobaric coefficient of expansion (7000 kPa)	isobaric coefficient of expansion (8000 kPa)	isobaric coefficient of expansion (9000 kPa)	isobaric coefficient of expansion (10000 kPa)	isobaric coefficient of expansion (11000 kPa)	isobaric coefficient of expansion (12000 kPa)	isobaric coefficient of expansion (13000 kPa)	isobaric coefficient of expansion (16000 kPa)	isobaric coefficient of expansion (17000 kPa)	isobaric coefficient of expansion (18000 kPa)	isobaric coefficient of expansion (19000 kPa)	isobaric coefficient of expansion (20000 kPa)	isobaric coefficient of expansion (21000 kPa)	isobaric coefficient of expansion (22000 kPa)	isobaric coefficient of expansion (23000 kPa)	other results
CCCCCC [hexane]	0.00135 ± 3.3e-05 1/K	0.00135 ± 3.3e-05 1/K	0.00133 ± 3.3e-05 1/K	0.0013 ± 3.2e-05 1/K	0.00126 ± 3.1e-05 1/K	0.00125 ± 3.1e-05 1/K	0.00124 ± 3e-05 1/K	0.00122 ± 3e-05 1/K	0.00121 ± 3e-05 1/K	0.0012 ± 2.9e-05 1/K	0.00119 ± 2.9e-05 1/K	0.00118 ± 2.9e-05 1/K	0.00115 ± 2.8e-05 1/K	0.00114 ± 2.8e-05 1/K	0.00113 ± 2.8e-05 1/K	0.00112 ± 2.7e-05 1/K	0.00111 ± 2.7e-05 1/K	0.0011 ± 2.7e-05 1/K	0.00109 ± 2.7e-05 1/K	0.00108 ± 2.7e-05 1/K	isobaric coefficient of expansion (2700 kPa): 0.00132 ± 3.2e-05 1/K; isobaric coefficient of expansion (4900 kPa): 0.00129 ± 3.2e-05 1/K; isobaric coefficient of expansion (14100 kPa): 0.00116 ± 2.9e-05 1/K; isobaric coefficient of expansion (14500 kPa): 0.00116 ± 2.8e-05 1/K; isobaric coefficient of expansion (24500 kPa): 0.00107 ± 2.6e-05 1/K; isobaric coefficient of expansion (25000 kPa): 0.00107 ± 2.6e-05 1/K; isobaric coefficient of expansion (26000 kPa): 0.00106 ± 2.6e-05 1/K; isobaric coefficient of expansion (27000 kPa): 0.00105 ± 2.6e-05 1/K; isobaric coefficient of expansion (28000 kPa): 0.00104 ± 2.6e-05 1/K; isobaric coefficient of expansion (29000 kPa): 0.00104 ± 2.5e-05 1/K; isobaric coefficient of expansion (30000 kPa): 0.00103 ± 2.5e-05 1/K
CCCCCCC [heptane]	0.00125 ± 3.1e-05 1/K	0.00124 ± 3e-05 1/K	0.00123 ± 3e-05 1/K	0.00121 ± 3e-05 1/K	0.00118 ± 2.9e-05 1/K	0.00117 ± 2.9e-05 1/K	0.00116 ± 2.8e-05 1/K	0.00115 ± 2.8e-05 1/K	0.00114 ± 2.8e-05 1/K	0.00113 ± 2.8e-05 1/K	0.00112 ± 2.7e-05 1/K	0.00111 ± 2.7e-05 1/K	0.00108 ± 2.7e-05 1/K	0.00108 ± 2.6e-05 1/K	0.00107 ± 2.6e-05 1/K	0.00106 ± 2.6e-05 1/K	0.00105 ± 2.6e-05 1/K	0.00104 ± 2.6e-05 1/K	0.00104 ± 2.5e-05 1/K	0.00103 ± 2.5e-05 1/K	isobaric coefficient of expansion (3000 kPa): 0.00122 ± 3e-05 1/K; isobaric coefficient of expansion (5000 kPa): 0.00119 ± 2.9e-05 1/K; isobaric coefficient of expansion (14000 kPa): 0.0011 ± 2.7e-05 1/K; isobaric coefficient of expansion (15000 kPa): 0.00109 ± 2.7e-05 1/K; isobaric coefficient of expansion (24000 kPa): 0.00102 ± 2.5e-05 1/K; isobaric coefficient of expansion (25000 kPa): 0.00101 ± 2.5e-05 1/K; isobaric coefficient of expansion (26000 kPa): 0.00101 ± 2.5e-05 1/K; isobaric coefficient of expansion (27000 kPa): 0.001 ± 2.5e-05 1/K; isobaric coefficient of expansion (28000 kPa): 0.000995 ± 2.4e-05 1/K; isobaric coefficient of expansion (29000 kPa): 0.000988 ± 2.4e-05 1/K; isobaric coefficient of expansion (30000 kPa): 0.000983 ± 2.4e-05 1/K
Cc1ccccc1 [toluene]	0.00104 ± 2.6e-05 1/K	0.00104 ± 2.5e-05 1/K	0.00103 ± 2.5e-05 1/K	0.00102 ± 2.5e-05 1/K	0.00101 ± 2.5e-05 1/K	0.001 ± 2.5e-05 1/K	0.000996 ± 2.4e-05 1/K	0.00099 ± 2.4e-05 1/K	0.000984 ± 2.4e-05 1/K	0.000977 ± 2.4e-05 1/K	0.000973 ± 2.4e-05 1/K	0.000967 ± 2.4e-05 1/K	0.000952 ± 2.3e-05 1/K	0.000947 ± 2.3e-05 1/K	0.000942 ± 2.3e-05 1/K	0.000937 ± 2.3e-05 1/K	0.000932 ± 2.3e-05 1/K	0.000928 ± 2.3e-05 1/K	0.000923 ± 2.3e-05 1/K	0.000918 ± 2.2e-05 1/K	isobaric coefficient of expansion (3000 kPa): 0.00103 ± 2.5e-05 1/K; isobaric coefficient of expansion (5000 kPa): 0.00101 ± 2.5e-05 1/K; isobaric coefficient of expansion (14000 kPa): 0.000962 ± 2.4e-05 1/K; isobaric coefficient of expansion (15000 kPa): 0.000957 ± 2.3e-05 1/K; isobaric coefficient of expansion (24000 kPa): 0.000914 ± 2.2e-05 1/K; isobaric coefficient of expansion (25000 kPa): 0.000908 ± 2.2e-05 1/K; isobaric coefficient of expansion (26000 kPa): 0.000904 ± 2.2e-05 1/K; isobaric coefficient of expansion (27000 kPa): 0.000903 ± 2.2e-05 1/K; isobaric coefficient of expansion (28000 kPa): 0.000896 ± 2.2e-05 1/K; isobaric coefficient of expansion (29000 kPa): 0.000896 ± 2.2e-05 1/K; isobaric coefficient of expansion (30000 kPa): 0.000892 ± 2.2e-05 1/K
C1CCCCC1 [cyclohexane]	0.00118 ± 2.9e-05 1/K	0.00117 ± 2.9e-05 1/K	0.00116 ± 2.8e-05 1/K	0.00114 ± 2.8e-05 1/K	0.00113 ± 2.8e-05 1/K	0.00112 ± 2.7e-05 1/K	0.00111 ± 2.7e-05 1/K	0.0011 ± 2.7e-05 1/K	0.00109 ± 2.7e-05 1/K	0.00109 ± 2.7e-05 1/K	0.00108 ± 2.6e-05 1/K	0.00107 ± 2.6e-05 1/K	0.00105 ± 2.6e-05 1/K	0.00104 ± 2.6e-05 1/K	0.00104 ± 2.5e-05 1/K	0.00103 ± 2.5e-05 1/K	0.00103 ± 2.5e-05 1/K	0.00102 ± 2.5e-05 1/K	0.00101 ± 2.5e-05 1/K	0.00101 ± 2.5e-05 1/K	isobaric coefficient of expansion (3000 kPa): 0.00115 ± 2.8e-05 1/K; isobaric coefficient of expansion (5000 kPa): 0.00113 ± 2.8e-05 1/K; isobaric coefficient of expansion (14000 kPa): 0.00106 ± 2.6e-05 1/K; isobaric coefficient of expansion (15000 kPa): 0.00106 ± 2.6e-05 1/K; isobaric coefficient of expansion (24000 kPa): 0.001 ± 2.5e-05 1/K; isobaric coefficient of expansion (25000 kPa): 0.000994 ± 2.4e-05 1/K; isobaric coefficient of expansion (26000 kPa): 0.000988 ± 2.4e-05 1/K; isobaric coefficient of expansion (27000 kPa): 0.000985 ± 2.4e-05 1/K; isobaric coefficient of expansion (28000 kPa): 0.000977 ± 2.4e-05 1/K; isobaric coefficient of expansion (29000 kPa): 0.000975 ± 2.4e-05 1/K; isobaric coefficient of expansion (30000 kPa): 0.00097 ± 2.4e-05 1/K
